Assay results published in patent US8034579B2, “Proteins with enhanced functionality and methods of making novel proteins using circular permutation” (Emory University, priority 2005, dated 2011).

How the values were obtained:
Format in all cases: biochemical
[1] = target: T1, Candida antarctica lipase B (CALB) circularly permuted variant cp144a, L144/A141 (Moesziomyces antarcticus, UniProt P41365); assay: Initial rate of hydrolysis of DiFMU octanoate, cp144a
T1 construct: Pichia pastoris, purified
Excerpt: (§1) Kinetic analysis of protein variants: To examine the impact of circular permutation on catalysis eleven functional CALB variants with termini in or near the active site were selected for detailed kinetic characterization. The locations of the termini in these variants are shown on the structure of CALB in FIG. 6; the numbers correspond to the amino acid residue of the new terminus. Following overexpression in P. pastoris, the selected circularly permuted proteins were purified to homogeneity. The catalytic performance of these variants was determined in activity assays with two standard lipase substrates, measuring the initial rates of hydrolysis of the chromogenic substrate p-nitrophenol butyrate (pNB) and the fluorogenic substrate 6,8-difluoro-4-methylumbelliferyl (DiFMU) octanoate.
(§2) The overexpression and purification of wild type CALB was performed as described in Rotticci-Mulder, J. C. et al., Protein Expr Purif 2001, 21, (3), 386-92, which is hereby incorporated by reference. The same protocol was adopted for the isolation of circular permutation variants of CALB. Briefly, pPIC9-ca/B was linearized by SacI digestion and electroporated into P. pastoris cells (GS115). Aliquots were plated on MD His^− plates and incubated at 30° C. Colonies appeared on plates after 2 days of incubation. A single colony was picked to inoculate 25 ml BMGY medium and the culture was incubated at 30° C. until it reached an OD600 of 2-6. The cells were harvested and resuspended in BMMY medium to an OD600 of 1. Protein expression was induced by addition of methanol to a final concentration of 0.5% (v/v) every 24 hours. After 4 days of incubation, the culture medium containing the lipase was separated from the cells by centrifugation (1500 g, 4° C., 10 min).
(§3) Lipase activity was determined by measuring the initial hydrolysis rate of p-NB and DiFMU octanoate at room temperature on a Synergy-HT microtiterplate reader (Bio-Tek Instruments, Winooski, Vt.). Stock solutions of p-NB (200 mM) and DiFMU octanoate (3 mM) were prepared in DMSO. p-NB hydrolysis over a substrate range of 0-1.6 mM was measured in 50 mM K-phosphate buffer (pH 7.5) at 400 nm ( ? for p-NB=13260 M^1 cm^−1) as described in Bender, M. L. et al., J Am Chem Soc 1968, 90, (1), 201-7, which is hereby incorporated by reference. The rate of DiFMU octanoate hydrolysis was determined by measuring the DiFMU formation over a substrate range of 0-12 μM in 50 mM K-phosphate buffer (pH 7.0) at an excitation/emission wavelength 360/460 nm. Kinetic constants were calculated by fitting the initial rates to the Michaelis-Menten equation using the Origin® software (version 7; OriginLab Corporation). […]

[2] = target: T2, Candida antarctica lipase B (CALB), wild type, SEQ ID NO: 2, L1/P317 (Moesziomyces antarcticus, UniProt P41365); assay: Initial rate of hydrolysis of DiFMU octanoate, wild type; conditions: kcat/KM (variant)/kcat/KM (wild type)
T2 sequence (P41365 26-342): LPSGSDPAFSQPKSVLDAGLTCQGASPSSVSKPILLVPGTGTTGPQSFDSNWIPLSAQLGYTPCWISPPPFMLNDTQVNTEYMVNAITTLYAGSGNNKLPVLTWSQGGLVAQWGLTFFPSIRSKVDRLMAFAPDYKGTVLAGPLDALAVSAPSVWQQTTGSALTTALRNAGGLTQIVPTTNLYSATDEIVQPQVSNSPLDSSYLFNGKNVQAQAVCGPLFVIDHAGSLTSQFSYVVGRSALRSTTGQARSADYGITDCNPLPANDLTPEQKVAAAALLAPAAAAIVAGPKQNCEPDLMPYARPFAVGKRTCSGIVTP
Excerpt: as §1, with “octanoate. […]” for “octanoate.”
(§4) Lipase activity was determined by measuring the initial hydrolysis rate of p-NB and DiFMU octanoate at room temperature on a Synergy-HT microtiterplate reader (Bio-Tek Instruments, Winooski, Vt.). Stock solutions of p-NB (200 mM) and DiFMU octanoate (3 mM) were prepared in DMSO. p-NB hydrolysis over a substrate range of 0-1.6 mM was measured in 50 mM K-phosphate buffer (pH 7.5) at 400 nm ( ? for p-NB=13260 M^1 cm^−1) as described in Bender, M. L. et al., J Am Chem Soc 1968, 90, (1), 201-7, which is hereby incorporated by reference. […]

[3] = target: T3, Candida antarctica lipase B (CALB) circularly permuted variant cp148a, A148/L147 (Moesziomyces antarcticus, UniProt P41365); assay: Initial rate of hydrolysis of DiFMU octanoate, cp148a
T3 construct: Pichia pastoris, purified
Excerpt: as §1, §2, §3

[4] = target: T4, Candida antarctica lipase B (CALB) circularly permuted variant cp150, His-S150A/149 (Moesziomyces antarcticus, UniProt P41365); assay: Initial rate of hydrolysis of DiFMU octanoate, cp150 (His)
T4 construct: Pichia pastoris, purified
Excerpt: as §1, §2
(§5) Lipase activity was determined by measuring the initial hydrolysis rate of p-NB and DiFMU octanoate at room temperature on a Synergy-HT microtiterplate reader (Bio-Tek Instruments, Winooski, Vt.). Stock solutions of p-NB (200 mM) and DiFMU octanoate (3 mM) were prepared in DMSO. p-NB hydrolysis over a substrate range of 0-1.6 mM was measured in 50 mM K-phosphate buffer (pH 7.5) at 400 nm ( ? for p-NB=13260 M^1 cm^−1) as described in Bender, M. L. et al., J Am Chem Soc 1968, 90, (1), 201-7, which is hereby incorporated by reference. The rate of DiFMU octanoate hydrolysis was determined by measuring the DiFMU formation over a substrate range of 0-12 μM in 50 mM K-phosphate buffer (pH 7.0) at an excitation/emission wavelength 360/460 nm. Kinetic constants were calculated by fitting the initial rates to the Michaelis-Menten equation using the Origin® software (version 7; OriginLab Corporation).

[5] = target: T5, Candida antarctica lipase B (CALB) circularly permuted variant cp268, P268/T267 (Moesziomyces antarcticus, UniProt P41365); assay: Initial rate of hydrolysis of DiFMU octanoate, cp268
T5 construct: Pichia pastoris, purified
Excerpt: as §1, §2, §5
(§6) The present study included ten CALB variants. […]

[6] = target: T6, Candida antarctica lipase B (CALB) circularly permuted variant cp144, His-L144/A141 (Moesziomyces antarcticus, UniProt P41365); assay: Initial rate of hydrolysis of DiFMU octanoate, cp144 (His)
T6 construct: secreted from Pichia pastoris GS115, purified
Excerpt: as §1, §2, §5

[7] = target: T7, Candida antarctica lipase B (CALB) circularly permuted variant cp148, His-A148/L147 (Moesziomyces antarcticus, UniProt P41365); assay: Initial rate of hydrolysis of DiFMU octanoate, cp148 (His)
T7 construct: Pichia pastoris, purified
Excerpt: as §1, §2, §5

[8] = target: T8, Candida antarctica lipase B (CALB) circularly permuted variant cp150, S150/V149 (Moesziomyces antarcticus, UniProt P41365); assay: Initial rate of hydrolysis of DiFMU octanoate, cp150 (S150/V149)
T8 construct: Pichia pastoris, purified
Excerpt: as §1, §2, §3

[9] = target: T9, Candida antarctica lipase B (CALB) circularly permuted variant cp44, G44/T43 (Moesziomyces antarcticus, UniProt P41365); assay: Initial rate of hydrolysis of DiFMU octanoate, cp44
T9 construct: Pichia pastoris, purified
Excerpt: as §1, §2, §5

[10] = target: T6, Candida antarctica lipase B (CALB) circularly permuted variant cp144, His-L144/A141; assay: Initial rate of hydrolysis of pNB, cp144 (His)
Excerpt: as §1, §2, §5

[11] = target: T9, Candida antarctica lipase B (CALB) circularly permuted variant cp44, G44/T43; assay: Initial rate of hydrolysis of pNB, cp44
Excerpt: as §1, §2, §5

[12] = target: T10, Candida antarctica lipase B (CALB) circularly permuted variant cp150, His-S150/V149 (Moesziomyces antarcticus, UniProt P41365); assay: Initial rate of hydrolysis of pNB, cp150 (His)
T10 construct: Pichia pastoris, purified
Excerpt: as §1, §2, §5

[13] = target: T1, Candida antarctica lipase B (CALB) circularly permuted variant cp144a, L144/A141; assay: Initial rate of hydrolysis of pNB, cp144a
Excerpt: as §1, §2, §3

[14] = target: T2, Candida antarctica lipase B (CALB), wild type, SEQ ID NO: 2, L1/P317; assay: Initial rate of hydrolysis of p-nitrophenol butyrate (pNB), wild type; conditions: kcat/KM (variant)/kcat/KM (wild type)
Excerpt: as §1, with “octanoate. […]” for “octanoate.”
as §4

[15] = target: T8, Candida antarctica lipase B (CALB) circularly permuted variant cp150, S150/V149; assay: Initial rate of hydrolysis of pNB, cp150 (S150/V149)
Excerpt: as §1, §2, §3

[16] = target: T3, Candida antarctica lipase B (CALB) circularly permuted variant cp148a, A148/L147; assay: Initial rate of hydrolysis of pNB, cp148a
Excerpt: as §1, §2, §3

[17] = target: T5, Candida antarctica lipase B (CALB) circularly permuted variant cp268, P268/T267; assay: Initial rate of hydrolysis of pNB, cp268
Excerpt: as §1, §2, §5, §6

[18] = target: T7, Candida antarctica lipase B (CALB) circularly permuted variant cp148, His-A148/L147; assay: Initial rate of hydrolysis of pNB, cp148 (His)
Excerpt: as §1, §2, §5

[19] = 50 mM K-phosphate pH 7.0, room temperature
[20] = kcat/KM (variant)/kcat/KM (wild type)
[21] = 50 mM K-phosphate pH 7.5, room temperature

T4 sequence (P41365 26-342, stated change not applied): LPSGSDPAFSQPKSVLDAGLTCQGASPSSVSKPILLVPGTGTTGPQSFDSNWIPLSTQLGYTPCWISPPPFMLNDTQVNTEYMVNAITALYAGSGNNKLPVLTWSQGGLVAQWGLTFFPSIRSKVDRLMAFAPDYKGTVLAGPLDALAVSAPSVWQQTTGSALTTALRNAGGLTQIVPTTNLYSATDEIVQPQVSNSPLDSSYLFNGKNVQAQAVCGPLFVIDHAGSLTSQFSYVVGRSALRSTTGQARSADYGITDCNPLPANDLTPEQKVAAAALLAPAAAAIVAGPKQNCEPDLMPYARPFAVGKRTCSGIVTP

Work on CCCCCCCC(=O)Oc1c(F)cc2c(C)cc(=O)oc2c1F [DiFMU octanoate, 6,8-difluoro-4-methylumbelliferyl octanoate] yielded a Km [1, 19] of 3 ± 0.3 µM, a relative specificity [1, 20] of 0.6 and a kcat ([1]; pH 7.0, room temperature) of 0.025 ± 0.0017 s⁻¹. The kcat/KM ([1]; pH 7.0, room temperature) was 8300 M⁻¹ s⁻¹, the relative specificity [2] was 1.0 and the Km [3, 19] was 6.1 ± 0.7 µM. For the same compound, the relative specificity [3, 20] was 0.7, the kcat ([3]; pH 7.0, room temperature) was 0.0583 ± 0.0033 s⁻¹ and the kcat/KM ([3]; pH 7.0, room temperature) was 9500 M⁻¹ s⁻¹. It also gave a Km [4, 19] of 2.7 ± 0.8 µM, a relative specificity [4, 20] of 1.0 and a kcat ([4]; pH 7.0, room temperature) of 0.035 ± 0.0033 s⁻¹. For the same compound, the kcat/KM ([4]; pH 7.0, room temperature) was 13000 M⁻¹ s⁻¹, the Km [5, 19] was 2.3 ± 0.3 µM and the relative specificity [5, 20] was 15.6. It also gave a kcat ([5]; pH 7.0, room temperature) of 0.48 ± 0.0183 s⁻¹, a kcat/KM ([5]; pH 7.0, room temperature) of 208000 M⁻¹ s⁻¹ and a Km [6, 19] of 2 ± 0.5 µM. The relative specificity [6, 20] was 0.6, the kcat ([6]; pH 7.0, room temperature) was 0.017 ± 0.0017 s⁻¹ and the kcat/KM ([6]; pH 7.0, room temperature) was 8300 M⁻¹ s⁻¹. For the same compound, the Km [7, 19] was 3.5 ± 0.5 µM, the relative specificity [7, 20] was 0.4 and the kcat ([7]; pH 7.0, room temperature) was 0.025 ± 0.0033 s⁻¹. For the same compound, the kcat/KM ([7]; pH 7.0, room temperature) was 5830 M⁻¹ s⁻¹, the Km [8, 19] was 5.5 ± 0.9 µM and the relative specificity [8, 20] was 0.5. It also gave a kcat ([8]; pH 7.0, room temperature) of 0.0367 ± 0.0033 s⁻¹, a kcat/KM ([8]; pH 7.0, room temperature) of 6700 M⁻¹ s⁻¹ and a Km [9, 19] of 5.6 ± 0.8 µM. For the same compound, the relative specificity [9, 20] was 0.13, the kcat ([9]; pH 7.0, room temperature) was 0.0083 ± 0.00083 s⁻¹ and the kcat/KM ([9]; pH 7.0, room temperature) was 1700 M⁻¹ s⁻¹.
With CCCC(=O)Oc1ccc([N+](=O)[O-])cc1 [pNB, p-Nitrophenyl butyrate] the Km [10, 21] was 550 ± 50 µM, the relative specificity [10, 20] was 0.4 and the kcat ([10]; pH 7.5, room temperature) was 2.97 ± 0.12 s⁻¹. For the same compound, the kcat/KM ([10]; pH 7.5, room temperature) was 5330 M⁻¹ s⁻¹, the Km [11, 21] was 690 ± 90 µM and the relative specificity [11, 20] was 0.01. It also gave a kcat ([11]; pH 7.5, room temperature) of 0.1 ± 0.0083 s⁻¹, a kcat/KM ([11]; pH 7.5, room temperature) of 170 M⁻¹ s⁻¹ and a Km [12, 21] of 510 ± 90 µM. For the same compound, the relative specificity [12, 20] was 1.4, the kcat ([12]; pH 7.5, room temperature) was 8.67 ± 0.75 s⁻¹ and the kcat/KM ([12]; pH 7.5, room temperature) was 17000 M⁻¹ s⁻¹. The Km [13, 21] was 820 ± 100 µM, the relative specificity [13, 20] was 0.7 and the kcat ([13]; pH 7.5, room temperature) was 7.25 ± 0.467 s⁻¹. The kcat/KM ([13]; pH 7.5, room temperature) was 8830 M⁻¹ s⁻¹, the relative specificity [14] was 1.0 and the Km [15, 21] was 425 ± 50 µM. For the same compound, the relative specificity [15, 20] was 1.1, the kcat ([15]; pH 7.5, room temperature) was 5.78 ± 0.267 s⁻¹ and the kcat/KM ([15]; pH 7.5, room temperature) was 13700 M⁻¹ s⁻¹. The Km [16, 21] was 550 ± 70 µM, the relative specificity [16, 20] was 1.2 and the kcat ([16]; pH 7.5, room temperature) was 8.02 ± 0.483 s⁻¹. The kcat/KM ([16]; pH 7.5, room temperature) was 14500 M⁻¹ s⁻¹, the Km [17, 21] was 580 ± 90 µM and the relative specificity [17, 20] was 7.1. For the same compound, the kcat ([17]; pH 7.5, room temperature) was 50.85 ± 3.82 s⁻¹, the kcat/KM ([17]; pH 7.5, room temperature) was 87700 M⁻¹ s⁻¹ and the Km [18, 21] was 500 ± 30 µM. For the same compound, the relative specificity [18, 20] was 0.5, the kcat ([18]; pH 7.5, room temperature) was 2.85 ± 0.067 s⁻¹ and the kcat/KM ([18]; pH 7.5, room temperature) was 5670 M⁻¹ s⁻¹.
